{
  "source": "patent US20260325538A1",
  "about": "“THERAPY” (priority 2023, published 2026)",
  "key": {"[1]": {"test_system": "Klebsiella pneumoniae Kpn St147 (NDM-1 and KPC-2)", "assay": "MIC determination of ceftazidime with zinc chelator and avibactam (checkerboard, broth microdilution)", "assay_type": "cell-based", "conditions": "with CAZ and avibactam", "from_the_text": "The fractional inhibitory concentration (FIC) is defined as the concentration that kills when used in combination with another agent divided by the concentration that has the same effect when used alone. The FIC index (FICI) for the combination of two agents is the sum of their individual FIC values. […] The European Committee for Antimicrobial Susceptibility Testing (EUCAST) of the European Society of Clinical Microbiology and Infectious Diseases (ESCMID) 2000 adopts the following definitions to determine the susceptibility of bacteria to an antimicrobial agent (see EUCAST Definitive Document E. Def 1.2: Terminology relating to methods for the determination of susceptibility of bacteria to antimicrobial agents. Clin. Microbiol. Infect. 2000; 6(9): 503-508): • FICI value≤0.5; synergy • 0.5<FICI value≤1; additive effect • 1<FICI value≤2; indifferent effect • FICI≥2; antagonistic effect\nAntimicrobial susceptibility testing (AST) by broth microdilution was performed according to The European Committee on Antimicrobial Susceptibility Testing. Reading guide for broth microdilution. Version 4.0, 2022 (see: http://www.eucast.org).\nCheckerboard 96-well plates (Corning 3788) were made by conducting serial two-fold dilutions of CAZ in cation-adjusted Mueller Hinton II broth (caMHB; Thermo Scientific, T3462), in columns across the microtiter plate (64-0.03 μg/ml). Additionally, avibactam was added to rows 3 to 8 in concentrations of 64, 16, 8, 4, 1 and 0.25 μg/ml, respectively. The zinc chelator was added to the wells of the plate, where applicable. […] The first row in all plates was used as a positive control for CAZ only, and the second row included the zinc chelator in addition to CAZ (no avibactam added to rows 1 or 2). The zinc chelator was added at the indicated concentration to rows 3-8 of plates 2 and 3.\nThe effect of the combination of zinc chelator/CAZ/avibactam was tested on a clinically isolated Klebsiella pneumoniae Kpn St147 actively constitutionally expressing the two resistance mechanisms NDM-1 and KPC-2 simultaneously. As a negative control, bacteria+CAZ was tested alone. As a positive control, bacteria+CAZ+zinc chelator was used. In Tables 3 and 4, concentrations (μg/ml) of CAZ are given in the top row left to right and avibactam concentrations (μg/ml) are given top to bottom in column 1.\nΣFICI=MICA(combination)/MICA (alone)+MICB(combination)/MICB (alone)+MICC(combination)/MICC (alone)"}, "[2]": {"test_system": "Acinetobacter baumannii ST15 (NDM-1 OXA-51, ADC-263)", "assay": "Checkerboard MIC, fixed concentration of sBLI (Examples 11-17)", "assay_type": "cell-based", "from_the_text": "The antibiotics and serine β-lactamase-inhibitors (sBLIs) were purchased from the following suppliers: Ceftazidime (CAZ): Sigma-Aldrich; Cefepime (FEP): Sigma-Aldrich; Cefpodoxime (CEFP): MedChemExpress; Sulbactam (SUL): Sigma-Aldrich Avibactam (AVI): Biosynth; Vaborbactam (VAB): ABCR; Tazobactam (TAZ): Sigma-Aldrich; Taniborbactam (TAN): Sigma-Aldrich.\nIn each of Examples 3-23, the compound of Example 26 of WO 2018/033719 was employed as the zinc chelator. The following abbreviations are used in these examples: sBLI means serine-β-lactamase inhibitor; CFU means colony-forming unit, which is a group of microbes that grows from a single cell on a petri plate; DMSO means dimethyl sulfoxide; MHB means Mueller-Hinton broth; caMHB means cation-adjusted Mueller-Hinton broth; MIC means minimum inhibitory concentration—the lower the MIC, the more efficient the combination against the respective bacterial strain.\nGeneral Protocol 2 Used in Examples 11-23 Employing a Fixed Concentration of sBLI within Each Experiment:\nAntimicrobial susceptibility testing (AST) by broth microdilution (MIC determination) was performed according to The European Committee on Antimicrobial Susceptibility Testing (EUCAST) guidelines (see Reading guide for broth microdilution Version 5.0, 2024: https://www.eucast.org).\nSterile clear round bottom polystyrene (non-treated) 96-well microplates (Corning 3788) were used for making serial two-fold dilutions of the antibiotic in cation-adjusted Mueller Hinton II broth (caMHB; Thermo Scientific, T3462, containing 29.4 μM Zn^2+ or MILLIPORE, 90922-500G, containing 5.6 μM Zn^2+), across the columns of the microtiter plate (128-0.06 μg/mL; columns 1-12).\nThe checkerboard plates were all modified by adding a serine β-lactamase inhibitor (sBLI) at a fixed concentration of 16 μg/mL. Additionally, the zinc chelator was added at various fixed concentrations. Samples were mixed so that all plates contained a control containing antibiotic alone (no sBLI, no zinc chelator), a sample containing antibiotic and sBLI (double combination; no zinc chelator), and a sample containing antibiotic, sBLI and zinc chelator (triple combination). All test wells used in each plate contained growth medium (caMHB), and inoculated bacteria at a final inoculum between 3-7×10^5 CFU/mL. […] Synergy for the triple combination (antibiotic, sBLI, and zinc chelator) was defined as when the MIC in any of the rows containing the zinc chelator in combination with antibiotic and sBLI (triple combination), was lower than for antibiotic alone and lower than for the antibiotic and sBLI double combination.\n(§1) An X in rows 1-4 in the table indicates growth of the bacterial inoculum, while a blank cell indicates no growth. Concentrations (μg/mL) of FEP are given in row 0. AVI and the zinc chelator were added in fixed concentrations (AVI at 16 μg/mL in rows 2-4, zinc chelator at 16 μg/mL in row 3 and at 8 μg/mL in row 4). As a control, the effect of FEP alone was tested (row 1). All wells contained bacterial growth medium (caMHB, 29.4 μM Zn^2+) and were inoculated with the test bacterium. The grey cells indicate the FEP MIC.\nas §1, with “SUL” for “AVI”, “(SUL” for “(AVI”\nAn X in rows 1-4 in the table indicates growth of the bacterial inoculum, while a blank cell indicates no growth. Concentrations (μg/mL) of FEP are given in row 0. TAZ and the zinc chelator were added in fixed concentrations (TAZ at 16 μg/mL in rows 2-4, zinc chelator at 16 μg/mL in row 3 and at 8 μg/mL in row 4). […]"}},
  "data": [
    {"smiles": "CN(C[C@H](O)[C@@H](O)[C@H](O)[C@H](O)CO)C(=O)c1ccc(CN(Cc2ccccn2)Cc2ccccn2)nc1", "note": "[zinc chelator]", "values": [
      {"measurement": "FICI Zinc Chelator", "setting": "[1]; zinc chelator 8 μg/mL", "value": 0.0039},
      {"measurement": "FICI Zinc Chelator", "setting": "[1]; zinc chelator 16 μg/mL", "value": 0.0078},
      {"measurement": "synergy with the zinc chelator", "setting": "[2]; zinc chelator 4 μg/mL, with CEFP and SUL 16 μg/mL, caMHB 5.6 μM Zn2+", "value": "Synergy"},
      {"measurement": "synergy with the zinc chelator", "setting": "[2]; zinc chelator 4 μg/mL, with FEP and AVI 16 μg/mL, caMHB 5.6 μM Zn2+", "value": "Synergy"},
      {"measurement": "synergy with the zinc chelator", "setting": "[2]; zinc chelator 8 μg/mL, with CEFP and SUL 16 μg/mL, caMHB 5.6 μM Zn2+", "value": "Synergy"},
      {"measurement": "synergy with the zinc chelator", "setting": "[2]; zinc chelator 8 μg/mL, with FEP and AVI 16 μg/mL, caMHB 5.6 μM Zn2+", "value": "Synergy"},
      {"measurement": "synergy with the zinc chelator", "setting": "[2]; zinc chelator 8 μg/mL, with FEP and AVI 16 μg/mL, caMHB 29.4 μM Zn2+", "value": "Synergy"},
      {"measurement": "synergy with the zinc chelator", "setting": "[2]; zinc chelator 8 μg/mL, with FEP and SUL 16 μg/mL, caMHB 29.4 μM Zn2+", "value": "Synergy"},
      {"measurement": "synergy with the zinc chelator", "setting": "[2]; zinc chelator 8 μg/mL, with FEP and TAZ 16 μg/mL, caMHB 5.6 μM Zn2+", "value": "Synergy"},
      {"measurement": "synergy with the zinc chelator", "setting": "[2]; zinc chelator 8 μg/mL, with FEP and TAZ 16 μg/mL, caMHB 29.4 μM Zn2+", "value": "Synergy"},
      {"measurement": "synergy with the zinc chelator", "setting": "[2]; zinc chelator 16 μg/mL, with CEFP and SUL 16 μg/mL, caMHB 5.6 μM Zn2+", "value": "Synergy"},
      {"measurement": "synergy with the zinc chelator", "setting": "[2]; zinc chelator 16 μg/mL, with CEFP and SUL 16 μg/mL, caMHB 29.4 μM Zn2+", "value": "Synergy"},
      {"measurement": "synergy with the zinc chelator", "setting": "[2]; zinc chelator 16 μg/mL, with FEP and AVI 16 μg/mL, caMHB 29.4 μM Zn2+", "value": "Synergy"},
      {"measurement": "synergy with the zinc chelator", "setting": "[2]; zinc chelator 16 μg/mL, with FEP and SUL 16 μg/mL, caMHB 29.4 μM Zn2+", "value": "Synergy"},
      {"measurement": "synergy with the zinc chelator", "setting": "[2]; zinc chelator 16 μg/mL, with FEP and TAZ 16 μg/mL, caMHB 5.6 μM Zn2+", "value": "Synergy"},
      {"measurement": "synergy with the zinc chelator", "setting": "[2]; zinc chelator 16 μg/mL, with FEP and TAZ 16 μg/mL, caMHB 29.4 μM Zn2+", "value": "Synergy"}
    ]}
  ]
}
